The test system of experiment [1] is 293 cells expressing Trp-p8. Nature of the experiment: Human cell killing in vitro, 293 cells expressing Trp-p8. It is filed as cell-based. As for the experimental part: (§1) Human Cell Killing in vitro by Compounds that Activate Trp-p8. Referring to the Figures, in FIG. 1 the effectiveness of selected cool-genic compounds in human cell killing was evaluated. The order and potency of cool-genic compounds were compared in two related human cell lines, one was 293 cells expressing Trp-p8 and a second was matched 293 cells lacking (not expressing) Trp-p8 used as a control. There were about 50,000 cells per well at plating. The cool-genic compounds were added at plating. The cells were treated by exposing the cells to the individual compounds at varying concentrations over about 0.1 to about 1,000 microM for 72 hours. […] FIGS. 1A and 1C show the response of cells expressing Trp-p8 and treated with the indicated numbered or named coolgenic compounds. FIGS. 1B and 1D show the response of cells without (not expressing) Trp-p8 and also treated with the indicated coolgenic compounds. […] Compound IIa4-1 had the best kill (IC50<1 microM) for cells expressing Trp-p8.

The test system of another experiment is PC3/Trp-p8. Nature of the experiment: PC3/Trp-p8 cell killing. It is filed as cell-based, human.
A further experiment deals with T1, Trp-p8 (Homo sapiens, UniProt Q7Z2W7).
T1 construct: expressed in transfected cells; host or cells: 293 and PC3 cells expressing Trp-p8 (non-expressing controls: 293, PC3, PC3/neo)
Nature of the experiment: Calcium ion uptake / flux (FLIPR) in cells expressing Trp-p8. It is filed as cell-based. Particulars: for Peak (FLIPR): maximum calcium ion flux at 10 microM. An excerpt: General methods and materials disclosed in R. Skyryma, et al., J. Physiology, 2000, 527.1, 71-83, for assessing and measuring calcium ion flux or cell uptake, and induction of apoptosis were adapted for use in the present disclosure and as illustrated herein. Other test methods and procedures such as described below, including cell line culturing, transfection, and in vivo and in vitro tumor growth inhibition, are readily apparent to one of ordinary skill in the art upon comprehending the disclosure.
Calcium ion uptake experiments were conducted as follows. Calcium uptake was measured for cells expressing Trp-p8 tumor antigen and for cells not expressing Trp-p8 tumor antigen after each cell line was contacted with cool-genic compounds of the present disclosure. […] Cells not expressing tumor antigen had essentially no observable calcium uptake over all of the cool-genic compound concentrations. […] Cell lines included non-expressing lines: 293, PC3, and PC3/neo; and tumor antigen expressing lines: […].

For a further experiment, the system named is 293/Trp-p8.clone 10. Nature of the experiment: IC50 on 293/Trp-p8.clone 10. As to conditions: read-out: IC50 293/Trp-p8.c10. It is filed as cell-based, human. The method, then: as §1
A further experiment relates to 293/Trp-p8.clone 18. Nature of the experiment: IC50 on 293/Trp-p8.clone 18. It is filed as cell-based, human. Particulars: read-out: IC50 293/Trp-p8.c18. As for the experimental part: as §1
Another experiment relates to PC3/Trp-p8.clone 21. Nature of the experiment: IC50 on PC3/Trp-p8.clone 21. In kind it is cell-based. As to conditions: Homo sapiens, PC3/Trp-p8.clone 21, in duplicate.

Where two headings read alike, the source gives them in different places.

T1 sequence (Q7Z2W7 whole entry): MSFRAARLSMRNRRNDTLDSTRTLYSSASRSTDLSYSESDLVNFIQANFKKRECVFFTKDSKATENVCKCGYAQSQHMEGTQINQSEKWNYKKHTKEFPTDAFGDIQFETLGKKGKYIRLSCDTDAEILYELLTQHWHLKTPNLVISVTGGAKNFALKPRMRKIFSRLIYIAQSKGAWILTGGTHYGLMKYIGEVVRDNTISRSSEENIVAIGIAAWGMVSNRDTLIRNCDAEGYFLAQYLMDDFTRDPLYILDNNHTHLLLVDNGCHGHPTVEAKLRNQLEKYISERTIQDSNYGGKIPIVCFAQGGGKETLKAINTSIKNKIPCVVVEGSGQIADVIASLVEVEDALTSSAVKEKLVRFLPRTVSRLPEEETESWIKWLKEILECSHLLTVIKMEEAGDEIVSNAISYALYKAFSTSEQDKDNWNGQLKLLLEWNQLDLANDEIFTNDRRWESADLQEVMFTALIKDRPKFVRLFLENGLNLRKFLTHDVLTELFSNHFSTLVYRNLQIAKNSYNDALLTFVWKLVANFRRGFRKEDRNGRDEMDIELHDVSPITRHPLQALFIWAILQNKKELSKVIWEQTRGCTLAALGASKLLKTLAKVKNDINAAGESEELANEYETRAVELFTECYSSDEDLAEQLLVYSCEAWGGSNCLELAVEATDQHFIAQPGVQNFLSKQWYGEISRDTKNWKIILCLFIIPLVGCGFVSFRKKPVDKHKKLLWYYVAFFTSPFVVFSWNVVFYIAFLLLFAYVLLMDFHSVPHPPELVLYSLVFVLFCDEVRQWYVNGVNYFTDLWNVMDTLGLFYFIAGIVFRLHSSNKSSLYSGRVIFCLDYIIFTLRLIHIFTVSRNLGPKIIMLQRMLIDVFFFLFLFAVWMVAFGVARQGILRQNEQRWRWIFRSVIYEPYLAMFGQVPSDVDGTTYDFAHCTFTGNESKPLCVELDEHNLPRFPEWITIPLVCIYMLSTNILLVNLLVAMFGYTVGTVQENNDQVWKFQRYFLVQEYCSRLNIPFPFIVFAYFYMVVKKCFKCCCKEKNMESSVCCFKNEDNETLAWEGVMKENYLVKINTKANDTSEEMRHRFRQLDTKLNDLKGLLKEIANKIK

With `CC1CCC(C(C)C)C(C(=O)NC(C)(C)CO)C1` (centres unmarked) [IIb-3], the “293/Trp-p8 Cell Killing” value in experiment [1] is “Yes”. The “PC3/Trp-p8 Cell Killing” value with PC3/Trp-p8 is reported as “Yes”. Moreover, the “Peak (FLIPR)” value on Trp-p8 is 25,100.
For the molecule `CCc1ccc(NC(=O)[C@@H]2C[C@H](C)CC[C@H]2C(C)C)cc1` [IIa4-8], the results for the IC50 in the experiment on 293/Trp-p8.clone 10 (Homo sapiens) and in the experiment with 293/Trp-p8.clone 18 (Homo sapiens) were 0.73 µM and 0.68 µM, respectively.
Turning to `Cc1ccc(NC(=O)[C@@H]2C[C@H](C)CC[C@H]2C(C)C)cc1` [IIa4-7], the IC50 was 1.21 µM with 293/Trp-p8.clone 10 (Homo sapiens) and 1.14 µM in the experiment on 293/Trp-p8.clone 18 (Homo sapiens).
As to `COc1ccc(NC(=O)C2CC(C)CCC2C(C)C)cc1` (centres unmarked) [IIa4-1, 2-Isopropyl-5-methyl-cyclohexanecarboxylic acid(4-methoxy-phenyl)-amide], the “293/Trp-p8 Cell Killing” value in experiment [1] is on record as “Yes”. Moreover, the IC50 in experiment [1] (Homo sapiens, HEK293, 72 hours, about 50,000 cells per well, read-out: IC50 (kill) for cells expressing Trp-p8) is under 1 µM; in the experiment with 293/Trp-p8.clone 10 (Homo sapiens), 0.42 µM; in the experiment on 293/Trp-p8.clone 18 (Homo sapiens), 0.58 µM; in the experiment with 293/Trp-p8.clone 18, 0.45 µM; in the experiment on PC3/Trp-p8.clone 21 it was 1.64 µM. Moreover, the “PC3/Trp-p8 Cell Killing” value in the experiment with PC3/Trp-p8 is given as “Yes”. At Trp-p8 (cells expressing Trp-p8, about 0.0001 to about 10 microM), the calcium uptake result is recorded as “particularly high calcium uptake”. At Trp-p8, the “Peak (FLIPR)” value is recorded as 31,000.
Consider `COc1ccccc1NC(=O)[C@@H]1C[C@H](C)CC[C@H]1C(C)C` [IIa8-1], for which the values for the IC50 in the experiment with 293/Trp-p8.clone 10 (Homo sapiens) and in the experiment with 293/Trp-p8.clone 18 (Homo sapiens) were 16.7 µM and 17.6 µM, respectively.
`CCC(C)NC(=O)C1CC(C)CCC1C(C)C` (centres unmarked) [IIb-5]: the “Peak (FLIPR)” value at Trp-p8 is recorded as 23,300.
As to `COc1ccc(NC(=O)[C@@H]2C[C@H](C)CC[C@H]2C(C)C)c(C)c1` [IIa12-1], the IC50 is 1.14 µM in the experiment with 293/Trp-p8.clone 10 (Homo sapiens) and 0.93 µM in the experiment with 293/Trp-p8.clone 18 (Homo sapiens).
For the molecule `CC(C)[C@@H]1CC[C@@H](C)C[C@H]1C(=O)Nc1ccc(Cl)cc1` [IIa4-5], the IC50 with 293/Trp-p8.clone 10 (Homo sapiens) was 1.99 µM; in the experiment on 293/Trp-p8.clone 18 (Homo sapiens), 17.6 µM.
For `CC1CCC(C(C)C)C(C(=O)OCCO)C1` (centres unmarked) [Compound V-2], at Trp-p8, the “Peak (FLIPR)” value is listed as 17,000.
As to `CC1CCC(C(C)C)C(C(=O)Nc2ccc(N3CCOCC3)cc2)C1` (centres unmarked) [IIa4-9, 2-Isopropyl-5-methyl-cyclohexanecarboxylic acid (4-morpholin-4-yl-phenyl)-amide], the figures for the IC50 in the experiment with 293/Trp-p8.clone 10 (Homo sapiens) and in the experiment on 293/Trp-p8.clone 18 (Homo sapiens) were 1.28 µM and 1.45 µM, respectively.
As to `CC1CCC(C(C)C)C(C(=O)O)C1` (centres unmarked) [Compound V-1], the “Peak (FLIPR)” value on Trp-p8 is reported as 9,600.
As for `COc1ccc(NC(=O)[C@@H]2C[C@H](C)CC[C@H]2C(C)C)cc1F` [IIa6-1], the IC50 amounted to 0.79 µM in the experiment on 293/Trp-p8.clone 10 (Homo sapiens) and 0.6 µM with 293/Trp-p8.clone 18 (Homo sapiens).
As for `CC1CCC(C(C)C)C(C(=O)OCCOCCO)C1` (centres unmarked) [Compound V-4], the “Peak (FLIPR)” value on Trp-p8 is given as 17,500.
`CCOC(=O)CNC(=O)C1CC(C)CCC1C(C)C` (centres unmarked) [XIII-1]: the “293/Trp-p8 Cell Killing” value in experiment [1] is reported as “Yes”. Moreover, the “PC3/Trp-p8 Cell Killing” value with PC3/Trp-p8 is on record as “Yes”. For the same molecule, the “Peak (FLIPR)” value on Trp-p8 is on record as 29,000.
Take `CCC(C)c1ccc(NC(=O)[C@@H]2C[C@H](C)CC[C@H]2C(C)C)cc1` (some centres unmarked) [IIa4-10, 2-Isopropyl-5-methyl-cyclohexanecarboxylic acid(4-sec-butyl-phenyl)-amide]: the IC50 was 3.59 µM with 293/Trp-p8.clone 10 (Homo sapiens) and 1.08 µM in the experiment on 293/Trp-p8.clone 18 (Homo sapiens).
As to `CC1CCC(C(C)C)C(C(=O)NC(C)(C)C)C1` (centres unmarked) [IIb-4], in experiment [1], the “293/Trp-p8 Cell Killing” value is listed as “Yes”. The “Peak (FLIPR)” value at Trp-p8 is 25,100.
With `CCNC(=O)C1CC(C)CCC1C(C)C` (centres unmarked) [IIb-1], the “Peak (FLIPR)” value on Trp-p8 was 25,000.
`CCCCCCP(=O)(C(C)CC)C(C)CC` (centres unmarked) [IV-3]: the “Peak (FLIPR)” value at Trp-p8 is on record as 22,000.
Take `CC(C)[C@@H]1CC[C@@H](C)C[C@H]1C(=O)Nc1ccc(O)cc1` [IIa4-3]: the IC50 in the experiment on 293/Trp-p8.clone 10 (Homo sapiens) turned out to be 1.23 µM; in the experiment on 293/Trp-p8.clone 18 (Homo sapiens), 1.05 µM; in the experiment on PC3/Trp-p8.clone 21, 4.27 µM.
As for `CC(C)[C@@H]1CC[C@@H](C)C[C@H]1C(=O)Nc1ccc(F)cc1` [IIa4-6], the IC50 was 3.58 µM in the experiment on 293/Trp-p8.clone 10 (Homo sapiens) and 3.78 µM with 293/Trp-p8.clone 18 (Homo sapiens).
In the case of `COC(=O)CNC(=O)C1CC(C)CCC1C(C)C` (centres unmarked) [XIII-2], the “Peak (FLIPR)” value at Trp-p8 is 25,000.
Regarding `CCCCCCCP(=O)(C(C)CC)C(C)CC` (centres unmarked) [IV-1], the “293/Trp-p8 Cell Killing” value in experiment [1] is “Yes”. Further, on Trp-p8, the “Peak (FLIPR)” value is 31,000.
As to `CC(C)[C@@H]1CC[C@@H](C)C[C@H]1C(=O)Nc1ccc(C(C)(C)C)cc1` [IIa4-11, 2-Isopropyl-5-methyl-cyclohexanecarboxylic acid(4-tert-butyl-phenyl)-amide], the IC50 stood at 1.23 µM with 293/Trp-p8.clone 10 (Homo sapiens) and 1.41 µM in the experiment with 293/Trp-p8.clone 18 (Homo sapiens).
On to `CC(C)[C@@H]1CC[C@@H](C)C[C@H]1C(=O)Nc1cccc(F)c1` [IIa10-2], for which the IC50 with 293/Trp-p8.clone 10 (Homo sapiens) came out at 6.31 µM; in the experiment with 293/Trp-p8.clone 18 (Homo sapiens), 2.91 µM.
As for `CC(C)c1ccc(NC(=O)[C@@H]2C[C@H](C)CC[C@H]2C(C)C)cc1` [IIa4-4], the IC50 was 0.76 µM in the experiment on 293/Trp-p8.clone 10 (Homo sapiens), 0.98 µM with 293/Trp-p8.clone 18 (Homo sapiens) and 3.21 µM in the experiment with PC3/Trp-p8.clone 21.
As to `COc1cccc(NC(=O)[C@@H]2C[C@H](C)CC[C@H]2C(C)C)c1` [IIa10-1], the IC50 in the experiment on 293/Trp-p8.clone 10 (Homo sapiens) stood at 3.8 µM; in the experiment on 293/Trp-p8.clone 18 (Homo sapiens), 3.69 µM.
In the case of `O=C1NC(c2cccc([N+](=O)[O-])c2)=CCN1c1ccccc1O` [Icilin, 3-(2-Hydroxy-phenyl)-6-(3-nitro-phenyl)-3,4-dihydro-1H-pyrimidin-2-one, reference compound], the IC50 in the experiment on 293/Trp-p8.clone 10 (Homo sapiens) amounted to 79.2 µM. For the same molecule, the “Peak (FLIPR)” value on Trp-p8 is 20,000.
In the case of `CC1CCC(C(C)C)C(C(=O)Nc2ccc3c(c2)CCC3)C1` (centres unmarked) [IIa6-3, 2-Isopropyl-5-methyl-cyclohexanecarboxylic acid indan-5-ylamide], the IC50 with 293/Trp-p8.clone 10 (Homo sapiens) came to 1.35 µM; in the experiment with 293/Trp-p8.clone 18 (Homo sapiens) it was 1.71 µM.
Take `CC(C)[C@@H]1CC[C@@H](C)C[C@H]1C(=O)Nc1ccccc1` [IIa4-2]: the IC50 in the experiment with 293/Trp-p8.clone 10 (Homo sapiens) was 3.21 µM; with 293/Trp-p8.clone 18 (Homo sapiens), 3.38 µM.
As for `CCCc1ccc(NC(=O)[C@@H]2C[C@H](C)CC[C@H]2C(C)C)cc1` [IIa4-12, 2-Isopropyl-5-methyl-cyclohexanecarboxylic acid(4-propyl-phenyl)-amide], the figures for the IC50 in the experiment on 293/Trp-p8.clone 10 (Homo sapiens), with 293/Trp-p8.clone 18 (Homo sapiens) and with PC3/Trp-p8.clone 21 were 5.65 µM, 4.93 µM and 12.9 µM, respectively.
Consider `COc1ccc(NC(=O)C2CC(C)CCC2C(C)C)cc1Cl` (centres unmarked) [IIa6-2, 2-Isopropyl-5-methyl-cyclohexanecarboxylic acid(3-chloro-4-methoxy-phenyl)-amide], for which the IC50 in the experiment with 293/Trp-p8.clone 10 is 3.1 µM; with 293/Trp-p8.clone 18, 2.57 µM.
Take `CC1CCC(C(C)C)C(C(=O)NC(C)C)C1` (centres unmarked) [IIb-2]: the “293/Trp-p8 Cell Killing” value in experiment [1] is “Yes”. For the same molecule, the “PC3/Trp-p8 Cell Killing” value with PC3/Trp-p8 was “Yes”. Further, the “Peak (FLIPR)” value on Trp-p8 is 25,100.
For `Cc1cc(NC(=O)[C@@H]2C[C@H](C)CC[C@H]2C(C)C)ccc1C(C)C` [IIa6-4, 2-Isopropyl-5-methyl-cyclohexanecarboxylic acid(4-isopropyl-3-methyl-phenyl)-amide], the IC50 in the experiment on 293/Trp-p8.clone 10 (Homo sapiens) worked out at 5.05 µM; in the experiment on 293/Trp-p8.clone 18 (Homo sapiens) it was 4.37 µM.
As for `CCCCCP(=O)(C(C)CC)C(C)CC` (centres unmarked) [IV-2], the “Peak (FLIPR)” value at Trp-p8 was 29,000.
`CNC(=O)C(C)(C(C)C)C(C)C` [III-1]: at Trp-p8, the “Peak (FLIPR)” value was 5,000.
